From PMC10657444, “Design and evaluation of tadpole-like conformational antimicrobial peptides” (Communications Biology, 2023)
Converted amounts (≈) assume the structure as drawn. “And” between values parts separate entries of the source, which are not always exact repeats. Equal entries are not always repeated. Where two headings read alike, the source gives them in different places. Non-standard residues stand in square brackets, D forms with d. Residues, ends and D or L forms follow the SMILES beside them.

Columns and labels:
[1] = test system: K. pneumoniae ATCC 700603; assay type: cell-based, Klebsiella pneumoniae
Protocol: (§1) The stability of peptides in different media was assessed using the MIC assay described above. Here, the stability of HT2 and RI-HT2 in serum, salt, and different pH were analyzed using methods previously described with some modifications. For serum stability, a solution of 10% or 20% fetal bovine serum (FBS) was made by diluting fetal bovine serum with phosphate buffer saline (PBS). HT2 and RI-HT2 were added for a final concentration of 160 µg/mL of peptide in the FBS solution, and incubation 2 h. Suspension containing no peptide was considered the negative control. The MIC of HT2 and RI-HT2 against MRSA USA 300 and K. pneumoniae ATCC 700603 were measured. For the acid stability assays, the peptides were incubated with different pH values of PBS (pH = 5.5 or 6.4) at 37 °C. These peptide mixtures were then serially diluted in a 96-well plate for the evaluation of antimicrobial activity against bacterial strains. Similarly, for salt stability, the peptides were assessed for their antimicrobial activity against MRSA USA 300 and K. pneumoniae ATCC 700603 in the presence of 150 mM NaCl.

MRSA USA 300 [2] = assay: Time-kill assay; assay type: cell-based, Staphylococcus aureus
Protocol: Time-kill assays were done in tubes (in 1.5 mL of LB) and antibiotics at the 1 ×, 2 ×, 4 × and 8 × MIC. Tubes were inoculated (5 × 10^6 CFU/mL) with MRSA USA 300 and K. pneumoniae ATCC 700603 and incubated at 37 °C under shaking. Serial dilutions of the cultures were plated at each desired time point (0, 1, 3, 6, and 24 h), using a multichannel pipette as follows: in line 1 of a 96-well plate, 100 µL of bacterial suspension was added, while 90 µL of 0.9% sterile saline per well was added to the other lines. At selected time points, 100 µL of bacterial suspension was transferred from the time-kill assay plate to the first line. The wells were further diluted 1 in 10 (0.9% saline) for the appropriate number of dilutions and 10 μL of each dilution was spotted in duplicate onto MH agar plates, then incubated overnight at 37°C. The colonies in each spot were counted and used to calculate the number of viable CFU/mL remaining in the original culture by considering the dilution factors.

[3] = test system: K. pneumoniae ATCC 700603; assay: Transmission electron microscopy; assay type: cell-based, Klebsiella pneumoniae; details: 2 × MIC, 60 min
Protocol: The processing method of the samples for transmission electron microscopy (TEM) was the same as the treatment for SEM. The samples were then prefixed with 2.5% glutaraldehyde at 4°C overnight, post-fixed with osmium tetroxide for 70 min, and washed twice with PBS (pH 7.4). Subsequently, the samples were dehydrated for 10 min in a graded ethanol series (30, 50, 70, 90, and 100%) followed by 10 min in a mixture of absolute ethanol and acetone (1:1, v/v) and 10 min in absolute acetone. The specimens were transferred to a mixture of absolute acetone and epoxy resin (1:1, v/v) for 30 min and then to pure epoxy resin overnight at a constant temperature. Finally, the samples were sectioned using an ultramicrotome, stained with uranyl acetate and lead citrate, and then observed by TEM (Hitachi H-7650, Japan).

MRSA USA 300 [4] = assay: Scanning electron microscopy; assay type: cell-based, Staphylococcus aureus; details: 2 × MIC, 60 min
Protocol: Mid-log phase bacteria (MRSA USA 300 and K. pneumoniae ATCC 700603) grown in LB broth were adjusted to a density of 5 × 10^6 CFU/mL. […] All samples were centrifuged at 8000 rpm for 5 min, washed and then resuspended in PBS. Bacterial cells were fixed with 2.5% glutaraldehyde, and then incubated at 37°C on a glass slide for 20 min. Samples were dehydrated by passing through gradient ethanol (10%, 30%, 50%, 70%, 90%, and 100%) for 5 min at each concentration. Slides were dried with an automatic critical point drying instrument (Leica EM CPD300), and a small amount of gold was sputtered onto the samples using a sputter coater system to avoid charging in the microscope. Finally, the bacteria were visualized under a field-emission scanning electron microscopy (FESEM) device (Sirion 200).

MRSA USA 300 [5] = assay type: cell-based, Staphylococcus aureus
Protocol: as §1

MTT cytotoxicity assay = assay type: cell-based, human; details: human
Protocol: (§2) To determine the cytotoxicity of the peptides, we used the MTT (3-(4,5)-dimethylthiahiazo (-z-y1)-3,5-di-phenytetrazoliumromide) dye reduction assay against HEK293T cells. In brief, the 100 μL of cells in 96-well plate were incubated for 24 h at 37 °C, 5% CO2, and then peptide solutions (concentrations ranging from 100 to 0.39 μM) were added and further incubated for 72 h. MTT solution (5 mg/mL) was added and further incubated for 4 h. After incubation, the precipitated MTT formazan crystal was dissolved by addition of dimethyl sulfoxide (DMSO). […]

HEK293T cells = assay: MTT cytotoxicity assay; assay type: cell-based, human; details: for percent cell viability: HEK293T
Protocol: as §2

[6] = HEK293T cells, OD450, cytotoxicity (Fig 2a), replicates

CC[C@@H](C)[C@@H](NC(=O)[C@@H](Cc1ccccc1)NC(=O)[C@@H](Cc1ccccc1)NC(=O)[C@@H](Cc1ccccc1)NC(=O)[C@H](N)Cc1ccccc1)C(=O)N[C@H](CCCNC(=N)N)C(=O)N[C@H](CCCNC(=N)N)C(=O)N[C@H](CC(C)C)C(=O)N[C@H](Cc1ccccc1)C(=O)N[C@H](CCCNC(=N)N)C(N)=O [RI-HT2] (H-[dF][dF][dF][dF][dI][dR][dR][dL][dF][dR]-NH2; N-terminus assumed)
MIC against K. pneumoniae ATCC 700603 ([1]; 150 mM NaCl): 12.5 µM (≈ 18.1 µg/mL)
MIC against K. pneumoniae ATCC 700603 ([1]; ATCC 700603): >100 µM
MIC against K. pneumoniae ATCC 700603 ([1]; Normal medium): 6.25 µM (≈ 9.05 µg/mL)
MIC against K. pneumoniae ATCC 700603 ([1]; pH 5.5): 12.5 µM (≈ 18.1 µg/mL)
MIC against K. pneumoniae ATCC 700603 ([1]; pH 6.4): 12.5 µM (≈ 18.1 µg/mL)
viable count, time-kill (MRSA USA 300 [2]; 2 × MIC, 0 h): 17000000 CFU/mL and 16000000 CFU/mL
viable count, time-kill (MRSA USA 300 [2]; 2 × MIC, 1 h): 18000 CFU/mL and 21000 CFU/mL and 20000 CFU/mL
viable count, time-kill (MRSA USA 300 [2]; 2 × MIC, 6 h): 15000 CFU/mL and 12000 CFU/mL and 14000 CFU/mL
time to complete killing (MRSA USA 300 [2]; 4 × MIC): 3 h
viable count, time-kill (MRSA USA 300 [2]; 4 × MIC, 0 h): 17000000 CFU/mL and 16000000 CFU/mL
viable count, time-kill (MRSA USA 300 [2]; 4 × MIC, 1 h): 1300 CFU/mL and 1200 CFU/mL
viable count, time-kill (MRSA USA 300 [2]; 4 × MIC, 3 h): 0 CFU/mL
viable count, time-kill (MRSA USA 300 [2]; 4 × MIC, 6 h): 0 CFU/mL
viable count, time-kill (MRSA USA 300 [2]; 4 × MIC, 24 h): 0 CFU/mL
viable count, time-kill (MRSA USA 300 [2]; 8 × MIC, 0 h): 17000000 CFU/mL and 16000000 CFU/mL
viable count, time-kill (MRSA USA 300 [2]; 8 × MIC, 1 h): 100 CFU/mL and 200 CFU/mL
viable count, time-kill (MRSA USA 300 [2]; 8 × MIC, 3 h): 0 CFU/mL
viable count, time-kill (MRSA USA 300 [2]; 8 × MIC, 6 h): 0 CFU/mL
viable count, time-kill (MRSA USA 300 [2]; 8 × MIC, 24 h): 0 CFU/mL
viable count, time-kill (MRSA USA 300 [2]; MIC, 0 h): 17000000 CFU/mL and 16000000 CFU/mL
viable count, time-kill (MRSA USA 300 [2]; MIC, 1 h): 4500000 CFU/mL and 3500000 CFU/mL and 3700000 CFU/mL
viable count, time-kill (MRSA USA 300 [2]; MIC, 3 h): 2300 CFU/mL and 1800 CFU/mL and 2200 CFU/mL
viable count, time-kill (MRSA USA 300 [2]; MIC, 6 h): 230000 CFU/mL and 380000 CFU/mL and 310000 CFU/mL
viable count, time-kill (MRSA USA 300 [2]; MIC, 24 h): 2000000000 CFU/mL and 3400000000 CFU/mL and 3000000000 CFU/mL
membrane and intracellular structure by TEM (in words) [3]: cytoplasmic membranes became blurred and separated
cell surface morphology by SEM (in words) (MRSA USA 300 [4]): rough, shrunken, wrinkled and partially damaged
MIC against MRSA USA 300 (MRSA USA 300 [5]; USA 300): 3.13 µM (≈ 4.53 µg/mL)
MIC against MRSA USA 300 (MRSA USA 300 [5]; USA 300, pH 5.5): 3.13 µM (≈ 4.53 µg/mL)
MIC against MRSA USA 300 (MRSA USA 300 [5]; USA 300, pH 6.4): 3.13 µM (≈ 4.53 µg/mL)
IC50 at 72 h (MTT cytotoxicity assay): > 100 µM
viability at 72 h, 6.25 µM (MTT cytotoxicity assay; HEK293T cells, HEK293T, 6.25 µM, read-out: OD450, cytotoxicity (Fig 2a), replicates): 90.2%
viability at 72 h, 12.5 µM (MTT cytotoxicity assay; HEK293T cells, HEK293T, 12.5 µM, read-out: OD450, cytotoxicity (Fig 2a), replicates): 87.8%
viability at 72 h, 0.39 µM (MTT cytotoxicity assay; [6]): 102%
viability at 72 h, 0.78 µM (MTT cytotoxicity assay; [6]): 94.4%
viability at 72 h, 1.57 µM (MTT cytotoxicity assay; [6]): 92.8%
viability at 72 h, 3.13 µM (MTT cytotoxicity assay; [6]): 93%
viability at 72 h, 25 µM (MTT cytotoxicity assay; [6]): 84.2%
viability at 72 h, 50 µM (MTT cytotoxicity assay; [6]): 77.8%
viability at 72 h, 100 µM (MTT cytotoxicity assay; [6]): 75.8%
toxicity / cytotoxicity against HEK293T cells (in words) (HEK293T cells): did not present
percent cell viability (HEK293T cells; 6.25 µM): 88.3759
percent cell viability (HEK293T cells; 12.5 µM): 86.6385 and 87.1349
